Test results: US7279497B2, “Benzopyran derivatives substituted with secondary amines including imidazole, their preparation and pharmaceutical compositions containing them” (Korea Research Institute of Chemical Technology, priority 2002, dated 2007)

Experiments:
[1] = system: cerebral cortical neurons; assay: Protective activity against iron-induced neuronal damage (LDH release); format: cell-based; settings: Rattus norvegicus, Cortical neurone, FeSO4 50 μM, 24 hours
Description: In order to examine whether the compounds of the formula 1 suppress the iron-induced neuronal damage and death, experiments were conducted as follows.
From the brains of 17-18 day-old rat embryos, cerebral cortical neurons were isolated and then, cultured at 37° C. for 7-9 days in a 5% CO2 incubator. The cortical cell cultures were washed twice with a minimum essential medium (MEM) to reduce the serum concentration to 0.2% and pre-treated with test compounds at 30, 7.5, 1.875, and 0.469 μM of final concentrations, each for 30 min. The test compounds were dissolved in DMSO and diluted in a medium. At this time, the final concentration of DMSO was not allowed to exceed 0.2%. For a control group, only vehicle was applied.
After the pre-treatment with test compounds or vehicle, FeSO4 was added to a final concentration of 50 μM, and the cultures were maintained for 24 hours in a CO2 incubator. During incubation, lactate dehydrogenase (LDH) was released into the medium upon neuronal death by the oxidative toxicity of iron. The extent of neuronal damage was assessed by measuring the amount of LDH released into the media. The protective effect of the compounds of interest on neurons was evaluated by calculating the reduction rate of released LDH of treated group compared with that of the control group, and IC50 was calculated as the least linear regression analysis of dose-response curve.

[2] = system: SPF SD rats; settings: rat, in vivo, po;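 also: Six-week-old animals, two per group, followed across an observation period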
[3] = system: HUVECs (Human umbilical vein endothelial cells); assay: Inhibitory effects on HUVEC tube formation; format: cell-based;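 as to tube formation: from minus no inhibition up to plus-plus-plus complete inhibition versus vehicle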
Description: The Inhibitory effects of the compounds of the formula 1 on angiogenesis were meassured by the vascular tube formation assay of HUVECs (Human umbilical vein endothelial cells), which is one of the major angiogenic steps.
HUVECs were isolated from human umbilical vein, and cultured. HUVECs within passage 5 from confluent cultures were detached, and plated onto a layer of a bFGF (basic fibroblast growth factor)-reduced and polymerized Matrigel. Matrigel cultures were incubated with or without the compounds of formula 1, and the changes of cell morphology were captured through a phase contrast microscope and photographed.

[4] = system: rat brain homogenate; assay: Inhibitory activity against iron-induced lipid peroxidation (MDA); format: biochemical; settings: 30 μM, FeCl2 400 μm
Description: In order to examine whether the compounds of the formula 1 suppress the iron-induced lipid peroxidation, experiments were conducted as follows.
The rat brain was homogenized in a Krebs buffer (15 mM HEPES, 10 mM glucose, 140 mM NaCl, 3.6 mM KCl, 1.5 mM CaCl2, 1.4 mM KH2PO4, 0.7 mM MgCl2, pH 7.4) and the supernatant separated by centrifugation at 12,000 rpm for 10 min was used for further experiments. FeCl2 was added to a final concentration of 400 μm in the brain homogenate which was then allowed to stand at 37° C. for 30 min. for the facilitation of oxidation. Each of the test compounds was added at a concentration of 30 μM and vehicle was used as a control.
Iron facilitates the oxidation of the brain homogenate to produce malondialdehyde (MDA), a lipid peroxidation product. Thus, the lipid peroxidation was determined by MDA quantification. The inhibitory effect of the test compounds against the lipid peroxidation was evaluated by calculating MDA reduction rate of the test compounds compared with that of the control group.
Typically, the MDA quantification is achieved by reacting samples with 2-thiobarbituric acid (TBA) and measuring the absorbance at 530 nm. However, this method is unsuitable to treat samples on a large scale because of a boiling step. Thus, in this experiment, N-methyl-2-phenylindole was used instead of TBA. […] Bioxytech^R LPO-586 Kit was used for MDA quantification.

[5] = system: isolated rat aorta; assay: Vasorelaxation effects on isolated blood vessels (methoxamine induced vasoconstriction); settings: rat aorta constricted with methoxamine (3 μM)
Description: The following experiment was conducted to examine whether the compounds of the formula 1 have vasorelaxation effects.
Male Sprague-Dawly rats (350-450 g, obtained from the Experimental Animal Team of the Korea Research Institute of Chemical Technology) were knocked unconscious by hitting the occipital region, sacrificed by cervical dislocation, and underwent thoracotomy. After being quickly removed, the thoracic aorta was deprived of the adipose tissue and cut into aortic rings of 3 mm width. The aorta was lightly rubbed with a modified Krebs Henseleit buffer (Physiological Salt Solution, PSS) soaked cotton club to remove the inner epithelial layer therefrom. While being suspended in an organ bath containing a physiological buffer, the vascular tissue was allowed to equilibrate under a resting tension of 2 g and then, stand for 1 hour at 37° C. for stabilization with a supply of a carbogen consisting of 95% O2-5% CO2.
Thereafter, the vascular tissue was constricted with 10^−5 M phenylephrine and washed several times with PSS and this procedure was repeated again to ensure the stable reactivity of vascular smooth muscle to repetitive constriction/dilatation.
In addition, 3×10^−6 M methoxamine was used to induce an intensive constriction in the vascular smooth muscle. When the vasoconstriction induced by the methoxamine reached and maintained a maximum, test compounds and controls were cumulatively added to the organ baths in concentrations of 1, 3, 10 and 30 μM so as to induce vasodilatation. Cromakalim, BMS-180448, and BMS-191095 were used as the controls.
Following the addition of test compounds, the change in the maximal constriction induced by methoxamine was calculated to plot a concentration-relaxation response curve. Through a linear regression analysis, IC50, the drug concentration at which the vascular tissue is 50% dilated, was obtained for each compound.

[6] = system: ischemic hearts; assay: Cardioprotective activity in ischemic heart model of anesthetized rats; settings: Rat in vivo, 0.3 mg/kg i.v.
Description: In order to determine whether the compounds of formula 1 are protective for ischemic hearts, experiments determining the anti-ischemic effects of the compounds on rats were conducted as follows. Male rats (350-450 g, obtained from the Experimental Animal Team of the Korea Research Institute of Chemical Technology) were anesthetized by the intraperitoneal injection of pentobarbital at a dose of 75 mg/kg. After trachetomy, the rats were rendered to respire artificially at a rate of 60/min with a stroke volume of 10 ml/kg. Cannulars were inserted into the fermoral vein and the fermoral artery and used for drug administration and blood pressure measurement, respectively. In the ischemic myocardial injury models, the body temperature has an important influence on the results. To avoid the change in the body temperature, a body temperature measuring probe was inserted into the rectum of each rat and the body temperature was constantly kept at 37° C. with the aid of a homeothermic blanket control unit. Afterwards, during testing, a continuous measurement was made of the mean arterial blood pressures and heart rates from the rats. For the measurement of the blood pressure, a pressure transducer (Statham P23XL, Grass Ins., MA, U.S.A.) was used. The heart rate was measured by a tachometer (ECG/RATE Coupler, Hugo Sachs Electronic, German) identified as Biotachometer. In addition, all of the changes occurring were continuously recorded through the Gould 2000 chart recorder ([…] Linearcorder W R 3310, Hugo Sachs Electronic). The left coronary artery was occluded according to the Selye H. method as follows. The rats underwent a left thoracotomy operation for partial opening of the chest and the right-side chest was pressurized by the middle finger of the left hand to push the heart out. Immediately after the left anterior descending coronary artery hereinafter referred to as (LAD) was carefully stitched using a suture needle with 5-0 silk ligature, the heart was then repositioned in the thoracic cavity while both ends of the ligature were situated outside. The opposite ligature ends were passed through a PE tube (PE100, 2.5 cm) and allowed to stand loose for 20 min for stabilization. Via the cannula inserted into the femoral vein, vehicles or drugs were administered into the rats which were rendered to stand for 30 min in order to sufficiently elicit the efficacies of the drugs. […] From the images input into the computer, the area of the normal blood stream tissue region which appeared blue in a computer monitor and the area which appeared colorless were measured. The percentage of the colorless area to the total area of each slice was calculated and multiplied by the weight of each slice to determine the area at risk (AAR) of each slice. […]

[7] = system: isolated rat hearts; assay: Cardioprotective activity in isolated ischemic rat heart (Langendorff); settings: 10 μM
Description: In order to determine whether the compounds of the chemical formula 1 are protective for ischemic hearts in vitro, experiments determining the anti-ischemic effects of the compounds on isolated rat hearts were conducted as follows.
For all in vitro studies, isolated rat hearts were used according to the published methods after some modification [HJ Ring, Arzneim.-Forsch./Drug Res. 39 (II), 1535 (1989): T. Krzeminski, et al., J. Pharmacological Methods, 25, 95, (1991)]
Male Sprague-Dawley rats weighing 300-450 g were anesthetized with sodium pentobarbital (100 mg/kg, i.p.). The tail vein was injected with heparin (1,000 U/kg) and then the trachea was intubated. While rats were mechanically ventilated with a rodent ventilator (Model 7025, Ugobasile, Italy), their hearts were perfused in situ with oxygenated modified Krebs-Henseleit bicarbonate buffer (described herein) by retrograde aortic cannulation. The hearts were then excised and moved to a Langendorff apparatus (H.S.E., Germany), where they were perfused with oxygenated modified Krebs-Henseleit bicarbonate buffer containing (in mM) NaCl 116, NaHCO3 24.9, KCl 4.7, MgSO4 1.1, KH2PO4 1.17, CaCl2 2.52, glucose 8.32 and pyruvate 2.0 at a constant perfusion pressure (85 mm Hg). A latex balloon filled with solvent (ethanol:water=1:1 (v/v)) and attached to a metal cannula was placed in the left ventricle through pulmonary vein and connected to a Isotec pressure transducer (H.S.E., Germany) for measurement of left ventricular pressure (LVP). The hearts were allowed to equilibrate for 15 min, at which time left ventricular end-diastolic pressure (EDP) was adjusted to 5 mm Hg and this balloon volume was maintained throughout the experiment. Then, baseline contractile function, heart rate (HR), and coronary flow (CF) (extracorporeal electromagnetic flow probe, Narco Bio-System, U.S.A.) were measured. Cardiac contractile function was calculated by subtracting LVEDP from LV peak systolic pressure (LVSP), yielding developed pressure (LVDP). Double product (DP), another important parameter for assessing cardiac performance, was calculated by multiplying HR by LVDP. Throughout the experiment, all these parameters were measured, and calculated before and 10 min after pretreatment with each compound and 30 min after the onset of reperfusion with buffer. Data on reperfusion DP were further expressed as the percentage to pretreatment DP.
After stabilization for 15 min, the hearts were pretreated for 10 min with respective drugs (10 μM, 0.04% DMSO) or vehicle (0.04% DMSO) before onset of global ischemia; test agents were administered directly into the oxygenator of the Langendorff apparatus immediately above the aortic root in a retrograde fashion as solutions in the perfusate. We then rendered the hearts globally ischemic by completely shutting off the perfusate for 30 min. Severity of ischemia was determined as the time to contracture (TTC, min) during global ischemia in which the first 5 mmHg increase in EDP was observed. Then, the hearts were reperfused and, 30 min later, contractile function (LVDP, DP) and cumulative reperfusion lactate dehydrogenase (LDH) release were measured. LDH was measured as a sensitive index for loss of cell viability with a kit supplied by Boerhinger Mannheim based on the technique of Wroblewski and LaDue [F. Wroblewski and J S. La Due, Proc Soc Exp Biol Med 90, 210, (1955)].

SMILES	inhibition at 30 µM ([1]; 30 μM, read-out: Neuroprotection inhibition % (LDH release)) [%]	IC50 ([1]; read-out: Neuroprotection IC50) [µM]	clinical symptoms, body weight and mortality [2]	inhibitory effect on HUVEC tube formation ([3]; 10 uM)	Tube formation ([3]; 10 μM)	inhibitory effect on HUVEC tube formation ([3]; 100 uM)	Tube formation ([3]; 100 μM)	% Inhibition of lipid peroxidation by iron [4] [%]	IC50 [5] [µM]	AAR/LV (%) [6] [%]	IZ/AAR (%) [6] [%]	LDVP × HR (%) ([7]; 30 min reperfusion, % of pretreatment DP)	TTC (time to contracture) ([7]; global ischemia) [min]	EDP ([7]; reperfusion) [MmHg]	LDH (reperfusion release) ([7]; reperfusion) [U/g]
COC(OC)[C@@]1(C)Oc2ccc([N+](=O)[O-])cc2[C@H](N(Cc2ncc[nH]2)c2ccc(Cl)cc2)[C@H]1O [Example 2, (2S,3R,4S)-3,4-dihydro-2-dimethoxymethyl-3-hydroxy-2-methyl-6-nitro-4-[N-(4-chlorophenyl)-N-(1H-imidazol-2-ylmethyl)amino]-2H-1-benzopyran]	92	6.2	no significant changes	strong inhibition	++	complete inhibition	+++								
COC(OC)[C@@]1(C)Oc2ccc(N)cc2[C@@H](N(Cc2ncc[nH]2)c2ccc(C(F)(F)F)cc2)[C@@H]1O [Example 25, (2S,3S,4R)-6-amino-3,4-dihydro-2-dimethoxymethyl-3-hydroxy-2-methyl-4-[N-(4-trifluoromethylphenyl)-N-(1H-imidazol-2-ylmethyl)amino]-2H-1-benzopyran]			no significant changes		+/−		+/−	97							
CC1(C)Oc2ccc(C#N)cc2[C@@H](N=C(NC#N)Nc2ccc(Cl)cc2)[C@@H]1O [BMS-180448, reference compound]									1.38	38.8	39.1	67.6	27.8	16.5	17.2
COC(OC)[C@@]1(C)Oc2ccc(N)cc2[C@@H](N(Cc2ncc[nH]2)c2ccc(Cl)cc2)[C@@H]1O [Example 24, (2S,3S,4R)-6-amino-3,4-dihydro-2-dimethoxymethyl-3-hydroxy-2-methyl-4-[N-(4-chlorophenyl)-N-(1H-imidazol-2-ylmethyl)amino]-2H-1-benzopyran]			no significant changes		+		+	83							
